According to US7462644B2, “Therapeutic agents” (AstraZeneca AB, priority 2002, dated 2008):

Each compound was assayed against T1, human PPAR alpha (Homo sapiens, UniProt Q07869) (assay: PPARα EC50 assay (assays described in WO03/051821)).
T1 sequence (Q07869 1-468): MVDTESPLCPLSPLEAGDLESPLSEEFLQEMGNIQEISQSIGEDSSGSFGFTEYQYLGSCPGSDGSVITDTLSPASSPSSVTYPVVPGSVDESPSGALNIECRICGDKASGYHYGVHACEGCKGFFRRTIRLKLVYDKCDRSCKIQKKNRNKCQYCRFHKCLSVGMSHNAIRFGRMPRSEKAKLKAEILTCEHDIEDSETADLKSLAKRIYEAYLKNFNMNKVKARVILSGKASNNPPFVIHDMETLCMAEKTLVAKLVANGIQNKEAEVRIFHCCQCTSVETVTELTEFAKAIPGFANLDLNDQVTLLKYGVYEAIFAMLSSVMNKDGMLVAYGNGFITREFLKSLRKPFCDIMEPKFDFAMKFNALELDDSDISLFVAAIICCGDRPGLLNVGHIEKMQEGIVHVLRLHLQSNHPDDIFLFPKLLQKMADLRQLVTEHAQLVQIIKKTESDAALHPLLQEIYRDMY
Format: cell-based
Experimental: The compounds of the invention were tested in the assays described in WO03/051821.

Row | EC50 | Compound
1 | 1 nM | CCCCN(Cc1ccc(C(F)(F)F)cc1F)C(=O)COc1ccc(C[C@H](OCC)C(=O)O)cc1 [Example 1, (2S)-3-[4-(2-{Butyl[2-fluoro-4-(trifluoromethyl)benzyl]amino}-2-oxoethoxy)phenyl]-2-ethoxy propanoic Acid]
2 | 3 nM | CCO[C@@H](Cc1ccc(OCC(=O)N(CC)Cc2ccc(Cl)cc2)cc1)C(=O)O [Example 2, (2S)-3-(4-{2-[(4-Chlorobenzyl)(ethyl)amino]-2-oxoethoxy}phenyl)-2-ethoxypropanoic Acid]
3 | 3 nM | CCO[C@@H](Cc1ccc(OCC(=O)N(CC)Cc2ccc(OC(F)(F)F)cc2)cc1)C(=O)O [Example 3]
4 | 5 nM | CCO[C@@H](Cc1ccc(OCC(=O)N(CC)Cc2ccc(C(F)(F)F)cc2)cc1)C(=O)O [Example 4, (2S)-2-Ethoxy-3-[4-(2-{ethyl[4-(trifluoromethyl)benzyl]amino}-2-oxoethoxy)phenyl]propanoic Acid]
5 | 3 nM | CCCCN(Cc1ccc(C(F)(F)F)cc1)C(=O)COc1ccc(C[C@H](OCC)C(=O)O)cc1 [Example 5]
